In the test the test system is BDF1 mice, P388 leukemia ip, median survival T/C. As to the kind of experiment: NCI In Vivo Anticancer Drug Screen. Data for tumor model P388 Leukemia (intraperitoneal) in B6D2F1 (BDF1) mice. To be noted: endpoint: median survival time, higher = longer survival. An outline of the steps: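 T/C = treated-group survival ÷ vehicle-control survival; tumour transplanted into mice before dosing.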

[1] abbreviates: dose: 100.0 mg/kg/injection, schedule: Q04DX003 (ip), vehicle: saline with Tween-80.
Setting [2] is: dose: 200.0 mg/kg/injection, schedule: Q04DX003 (ip), vehicle: saline with Tween-80.
[3] abbreviates: dose: 400.0 mg/kg/injection, schedule: Q04DX003 (ip), vehicle: saline with Tween-80.
Setting [4] is: dose: 100.0 mg/kg/injection, schedule: Q01DX009 (ip), vehicle: saline with Tween-80.
[5] abbreviates: dose: 200.0 mg/kg/injection, schedule: Q01DX009 (ip), vehicle: saline with Tween-80.
Where [6] appears, read: dose: 50.0 mg/kg/injection, schedule: Q01DX009 (ip), vehicle: saline with Tween-80.

Each structure is given as a SMILES string. Where “and” joins values, the source holds several entries; their conditions need not be identical. Identical values can stand only once. Toxic doses and inconclusive results are not listed.

Take `C=CC12COC(=O)C(=C)C1C1OC(=O)C(=C)C1C(O)C2` (configuration not stated): the T/C runs as follows: (dose: 1.0 mg/kg/injection, schedule: Q01DX009 (ip), vehicle: water) 118 % of control; (dose: 2.0 mg/kg/injection, schedule: Q01DX009 (ip), vehicle: water) 109 % of control; (dose: 4.6 mg/kg/injection, schedule: Q01DX010 (ip), vehicle: carboxymethylcellulose (CMC)) 115 % of control; (dose: 8.0 mg/kg/injection, schedule: Q01DX009 (ip), vehicle: water) 113 % of control; (dose: 10.0 mg/kg/injection, schedule: Q01DX009 (ip), vehicle: saline + alcohol) 122 % of control; (dose: 125.0 micrograms/kg/injection, schedule: Q01DX010 (ip), vehicle: carboxymethylcellulose (CMC)) 95 % of control. Moreover, the T/C by setting is: (dose: 250.0 micrograms/kg/injection, schedule: Q01DX010 (ip), vehicle: carboxymethylcellulose (CMC)) 95 % of control; (dose: 500.0 micrograms/kg/injection, schedule: Q01DX010 (ip), vehicle: carboxymethylcellulose (CMC)) 100 % of control; (dose: 1000.0 micrograms/kg/injection, schedule: Q01DX010 (ip), vehicle: carboxymethylcellulose (CMC)) 104 % of control; (dose: 2000.0 micrograms/kg/injection, schedule: Q01DX010 (ip), vehicle: carboxymethylcellulose (CMC)) 104 % of control; (dose: 4000.0 micrograms/kg/injection, schedule: Q01DX010 (ip), vehicle: carboxymethylcellulose (CMC)) 100 % of control.

Turning to `CC(=O)OC(c1nc2ccccc2c(=O)n1C1CC2(OC1=O)c1ccccc1N1C(=O)C(C)N(O)C12)C(C)C` (configuration not stated), the T/C (dose: 4.0 mg/kg/injection, schedule: Q01DX009 (ip), vehicle: Klucel (hydroxypropylcellulose) (HPC)) is 93 % of control; the T/C (dose: 8.0 mg/kg/injection, schedule: Q01DX009 (ip), vehicle: Klucel (hydroxypropylcellulose) (HPC)) was 101 % of control; the T/C (dose: 16.0 mg/kg/injection, schedule: Q01DX009 (ip), vehicle: Klucel (hydroxypropylcellulose) (HPC)) is 110 % of control; the T/C (dose: 32.0 mg/kg/injection, schedule: Q01DX009 (ip), vehicle: Klucel (hydroxypropylcellulose) (HPC)) is 100 % of control.

In the case of `CC1(C)C2CCC(CN)C1C2` (configuration not stated), the T/C (dose: 100.0 mg/kg/injection, schedule: Q01DX009 (ip), vehicle: other) was 106 % of control.

Turning to `CC1NC(=O)C2Cc3ccc(O)c(c3)Oc3cccc(c3)C(O)C(C(=O)N2C)N(C)C(=O)C(C)NC(=O)C(Cc2ccc(O)c(O)c2)N(C)C(=O)C(C)NC1=O` (configuration not stated), the T/C by setting is: (dose: 0.25 mg/kg/injection, schedule: Q01DX009 (ip), vehicle: distilled water + Tween-80) 94 % of control; (dose: 0.5 mg/kg/injection, schedule: Q01DX009 (ip), vehicle: distilled water + Tween-80) 99 % of control; (dose: 1.0 mg/kg/injection, schedule: Q01DX009 (ip), vehicle: distilled water + Tween-80) 94 % of control; (dose: 2.0 mg/kg/injection, schedule: Q01DX009 (ip), vehicle: distilled water + Tween-80) 96 % of control; (dose: 4.0 mg/kg/injection, schedule: Q01DX009 (ip), vehicle: distilled water + Tween-80) 99 % of control; (dose: 8.0 mg/kg/injection, schedule: Q01DX009 (ip), vehicle: distilled water + Tween-80) 99 % of control.

In the case of `CCC1(C)N=C(C)C(C)S1` (configuration not stated), the T/C runs as follows: under setting [1], 100 % of control; under setting [2], 100 % of control; under setting [3], 109 % of control.

Consider `Nc1nc2c(c(=O)[nH]1)N(C=O)C(CNc1ccc(C(=O)N[C@@H](CCC(=O)O)C(=O)O)cc1)CN2` (some centres not stated), for which the T/C is 95 % of control under setting [4]; 104 % of control (dose: 100.0 mg/kg/injection, schedule: Q04DX003 (ip), vehicle: saline); 95 % of control under setting [5]; 104 % of control (dose: 200.0 mg/kg/injection, schedule: Q04DX003 (ip), vehicle: saline); 95 % of control (dose: 400.0 mg/kg/injection, schedule: Q01DX009 (ip), vehicle: saline with Tween-80); 100 % of control (dose: 400.0 mg/kg/injection, schedule: Q04DX003 (ip), vehicle: saline).

As to `COc1cc(NC(=O)CN(CCCl)CCCl)cc(OC)c1OC`, the T/C runs as follows: (dose: 7.7 mg/kg/injection, schedule: Q04DX003 (ip), vehicle: Klucel (hydroxypropylcellulose) (HPC)) 107 % of control; (dose: 30.0 mg/kg/injection, schedule: Q04DX003 (ip), vehicle: Klucel (hydroxypropylcellulose) (HPC)) 122 % of control; (dose: 60.0 mg/kg/injection, schedule: Q04DX003 (ip), vehicle: Klucel (hydroxypropylcellulose) (HPC)) 104 % of control and 114 % of control; (dose: 90.0 mg/kg/injection, schedule: Q04DX003 (ip), vehicle: Klucel (hydroxypropylcellulose) (HPC)) 177 % of control; (dose: 200.0 mg/kg/injection, schedule: Q04DX003 (ip), vehicle: Klucel (hydroxypropylcellulose) (HPC)) 209 % of control; (dose: 300.0 mg/kg/injection, schedule: Q04DX003 (ip), vehicle: Klucel (hydroxypropylcellulose) (HPC)) 122 % of control.

Regarding `CC1CCC2C(C)C(=O)OC2C2(C)C(=O)C=CC12` (configuration not stated), the T/C by setting is: (dose: 6.4 mg/kg/injection, schedule: Q01DX009 (ip), vehicle: alcohol) 106 % of control; (dose: 9.6 mg/kg/injection, schedule: Q01DX009 (ip), vehicle: alcohol) 100 % of control; (dose: 14.0 mg/kg/injection, schedule: Q01DX009 (ip), vehicle: alcohol) 122 % of control; (dose: 22.0 mg/kg/injection, schedule: Q01DX009 (ip), vehicle: alcohol) 108 % of control.

For the compound `NC1=NS(=O)(=O)N=C(N)C1=NNc1ccccc1`, the T/C is, setting by setting: under setting [6], 92 % of control; under setting [4], 99 % of control; under setting [5], 103 % of control.

`CC(=O)Nc1ccc(OCCOC(=O)Nc2ccc(C)cc2[N+](=O)[O-])cc1`: the T/C is 105 % of control (dose: 12.5 mg/kg/injection, schedule: Q01DX009 (ip), vehicle: Klucel (hydroxypropylcellulose) (HPC)) and 93 % of control (dose: 25.0 mg/kg/injection, schedule: Q01DX009 (ip), vehicle: Klucel (hydroxypropylcellulose) (HPC)).

In the case of `CCCC(C)(O)C#CC(C)(O)CCC` (configuration not stated), the T/C was 101 % of control (dose: 12.5 mg/kg/injection, schedule: Q01DX009 (ip), vehicle: saline with Tween-80); 92 % of control (dose: 25.0 mg/kg/injection, schedule: Q01DX009 (ip), vehicle: saline with Tween-80); 93 % of control under setting [6]; 100 % of control under setting [1]; 104 % of control under setting [2]; 90 % of control under setting [3].

Consider `CCN(CC)S(=O)(=O)c1cccc(C(O)CC(O)(C(F)(F)F)C(F)(F)F)c1` (configuration not stated), for which the T/C was 95 % of control (dose: 100.0 mg/kg/injection, schedule: Q04DX003 (ip), vehicle: other); 86 % of control (dose: 200.0 mg/kg/injection, schedule: Q04DX003 (ip), vehicle: other); 90 % of control (dose: 400.0 mg/kg/injection, schedule: Q04DX003 (ip), vehicle: other).

`O=C1C(=C2CCCCC2)SC(=S)N1c1ccccc1`: the T/C under setting [6] is 106 % of control, the T/C under setting [4] is 103 % of control and the T/C under setting [5] is 103 % of control.

As to `Cc1csc2nc(-c3ccccc3)nc(Cl)c12`, the T/C reads like this: (dose: 75.0 mg/kg/injection, schedule: Q04DX003 (ip), vehicle: saline sonified) 105 % of control; (dose: 150.0 mg/kg/injection, schedule: Q04DX003 (ip), vehicle: saline sonified) 120 % of control; (dose: 300.0 mg/kg/injection, schedule: Q04DX003 (ip), vehicle: saline sonified) 110 % of control.

For `O=S(=O)(Cc1ccccc1)C(Cl)(Cl)c1ccccc1`, the T/C was 100 % of control (dose: 50.0 mg/kg/injection, schedule: Q04DX003 (ip), vehicle: saline with Tween-80); 104 % of control under setting [1]; 109 % of control under setting [2].

Take `CCN(CC)c1ccc(N=Cc2ccccc2S(=O)(=O)O)cc1`: the T/C is, setting by setting: (dose: 6.25 mg/kg/injection, schedule: Q01DX009 (ip), vehicle: saline) 100 % of control; (dose: 6.25 mg/kg/injection, schedule: Q04DX003 (ip), vehicle: saline) 104 % of control; (dose: 12.5 mg/kg/injection, schedule: Q01DX009 (ip), vehicle: saline) 100 % of control; (dose: 12.5 mg/kg/injection, schedule: Q04DX003 (ip), vehicle: saline) 109 % of control; (dose: 25.0 mg/kg/injection, schedule: Q01DX009 (ip), vehicle: saline) 100 % of control; (dose: 25.0 mg/kg/injection, schedule: Q04DX003 (ip), vehicle: saline) 104 % of control.

Regarding `C=CCC(CC)(C(=O)O)C(=O)O`, the T/C was 100 % of control (dose: 50.0 mg/kg/injection, schedule: Q01DX009 (ip), vehicle: saline) and 90 % of control (dose: 100.0 mg/kg/injection, schedule: Q01DX009 (ip), vehicle: saline).
